Laboratory results published in patent US10968186B2, “Ascochlorin derivative and use thereof as AMPK activator” (priority 2016, dated 2021).
Values after ≈ are worked out from the molar mass of the structure shown. Read-outs that look alike come from different tables or passages of the source.

Key:
[1] = Stability against human liver microsomes; type: in vitro ADME; conditions: 2 μM compound
Protocol: (§1) Determination of Stability Against Mouse and Human Mirosomes
(§2) Pooled human liver microsomes (Cat. 452161; Lot. 23418) were purchased from Corning and pooled male mouse liver microsomes (Cat. M1000; Lot. 1210302) were purchased from Xenotech. Microsomes were stored at −80° C. prior to use. 40 μL of ultra-pure H2O was used instead of NADPH solution in the negative control. The negative control was used to exclude the misleading factor that was resulted from instability of chemical itself. Samples with NADPH were prepared in duplicate. Negative controls were prepared in singlet.
(§3) The reaction was started with the addition of 4 μL of 200 μM compound solution to each master solution to get the final concentration of 2 μM. Verapamil was used as positive control in the assay. Aliquots of 50 μL were taken from the reaction solution at 0, 15, 30, 45 and 60 min. The reaction was stopped by addition of 4 volumes of cold acetonitrile with IS (200 nM imipramine, 200 nM labetalol and 2 μM ketoprofen). Samples were centrifuged at 3,220 g for 40 minutes. Aliquot of […] of the supernatant was mixed with 90 μL of ultra-pure H2O and then was used for LC-MS/MS analysis. Results are shown in Table 3 by indicating remaining % of the test compound after 60 minutes incubation with liver microsomes from human and mouse in the presence of NADPH.

[2] = Stability against mouse liver microsomes; type: in vitro ADME; conditions: mouse LM, 2 μM compound, 60 min, NADPH
Protocol: as §1, §2, §3

A549 = assay: Anti-proliferative activity, CellTiterGlo assay, A549; type: cell-based; conditions: Homo sapiens; A549, 96 hrs incubation; read-out: Antiproliferative activities IC50, A549
Protocol: (§4) The anti-proliferative activities of the compounds against 6 human cancer cell lines were determined by CellTiterGlo assay kit. All cells were obtained from ATCC and cultured as recommended by the vendor. Cells were assayed in exponential growth phase. Sample solution was prepared by 3-fold serial dilution from 30 mM stock for 10 doses in DMSO. Antiproliferative activities were measured by CellTiterGlo assay kit according to the protocol after cells were incubated for 96 hrs in a 37° C., 5% CO2 incubator.
(§5) On the 4th day of incubation, i) 15 μl reagent (CelltiterGlo assay kit) was added per well and plate was shaken (avoiding light) for 2 mins on a plate shaker, ii) the plate was kept (avoiding light) in room temperature for 30 min, and iii) the luminescence value was recorded by Multiplate reader.

HT29 = assay: Anti-proliferative activity, CellTiterGlo assay, HT29; type: cell-based; conditions: Homo sapiens, HT-29; HT29, 96 hrs incubation; read-out: Antiproliferative activities IC50, HT29
Protocol: as §4, §5

BxPC-3 = assay: Anti-proliferative activity, CellTiterGlo assay, BxPC-3; type: cell-based; conditions: Homo sapiens; BxPC-3, 96 hrs incubation; read-out: Antiproliferative activities IC50, BxPC-3
Protocol: as §4, §5

LNCaP = assay: Anti-proliferative activity, CellTiterGlo assay, LNCaP; type: cell-based; conditions: Homo sapiens, 96 hrs incubation, read-out: Antiproliferative activities IC50, LNCaP
Protocol: as §4, §5

MDA-MB-231 = assay: Anti-proliferative activity, CellTiterGlo assay, MDA-MB-231; type: cell-based; conditions: Homo sapiens; MDA-MB-231, 96 hrs incubation; read-out: Antiproliferative activities IC50, MDA-MB-231
Protocol: as §4, §5

U87-MG = assay: Anti-proliferative activity, CellTiterGlo assay, U87-MG; type: cell-based; conditions: Homo sapiens, U-87 MG, 96 hrs incubation, read-out: Antiproliferative activities IC50, U87-MG
Protocol: as §4, §5

[3] = Solubility in pH4.0 and pH7.4 phosphate buffer solution; type: physicochemical; conditions: phosphate buffer (PBS), aqueous buffer, kinetic from dmso stock, 2 hr incubation, 25° C.
Protocol: 1) Preparation of Stock Solutions
Diclofenac was used as positive control in the assay.
2) Procedures for Solubility Determination
This study was performed in duplicate. […] The filtered samples were diluted with methanol.
3) Samples Analyzed by LC-MS/MS

[4] = test system: HFD-STZ C57BL/6J mice model; assay: In vivo efficacy in HFD-STZ C57BL/6J mice model
Protocol: In Vivo Efficacy in HFD-STZ C57BL/6J Mice Model
Diet induced obesity model establishment:
C57BL/6J mice were fed with high fat diet (Research Diets, D12492) for 64 days, and streptozotocin (10 mg/kg) was given orally on day 22 and day 29. Compound treatment was done from day 36 to day 63.
Based on the animal's body weight and oral glucose tolerance test (OGTT) on week 5, mice were randomly assigned to respective groups using a computer-generated randomization procedure.
Blood glucose level was measured with the blood from tail vein every 2nd week by using Accu-Chek Aviva System.
Blood Chemistry Analysis:
Blood samples were obtained from collection on Day 49 and 65, the samples were immediately processed by centrifugation at 4° C., 4,000 g for 15 minutes, and then they were transferred into a new test tube. Lipid profile and full panel blood bio-chemistry parameters were measured by using TOSHIBA TBA-40FR automated biochemical analyzer.

[5] = pH 4.0 phosphate buffer solution, read-out: Solubility, pH 4.0 PBS
[6] = pH 7.4 phosphate buffer solution, read-out: Solubility, pH 7.4 PBS
[7] = OGTT assay, versus group treated with vehicle
[8] = once a day oral treatment for 28 days at 0.25 to 16 mg/kg

Row | SMILES | melting point | Liver microsome stability remaining % after 60 min incubation with NADPH, human LM [1] | Liver microsome stability remaining % after 60 min incubation with NADPH, mouse LM [2] | IC50 (A549) | IC50 (HT29) | IC50 (BxPC-3) | IC50 (LNCaP) | IC50 (MDA-MB-231) | IC50 (U87-MG) | solubility at 2 h [3, 5] | solubility at 2 h [3, 6] | OGTT: blood glucose level after 2 hours of glucose administration, lower than control group [4, 7] | OGTT: glucose AUC lower than control group [4, 7] | decrease of HbA1C level [4, 8] | decrease of blood glucose level [4, 8]
1 | CC(/C=C/[C@@]1(C)[C@H](C)CC/C(=N\O)[C@@H]1C)=C\Cc1c(O)c(/C=N/O)c(C)c(Cl)c1OCF [Compound 4, 4-chloro-3-(fluoromethoxy)-2-[(2E,4E)-5-[(1R,2R,3E,6R)-3-(hydroxyimino)-1,2,6-trimethylcyclohexyl]-3-methylpenta-2,4-dien-1-yl]-6-[(1E)-(hydroxyimino)methyl]-5-methylphenol] | – | 67% | 47% | 4.3 µM | 6.4 µM | 11.4 µM | 4.2 µM | 5.1 µM | 9.1 µM | – | – | – | – | – | –
2 | COc1c(Cl)c(C)c(/C=N/O)c(O)c1C/C=C(C)/C=C/[C@@]1(C)[C@H](C)CCC(C)(O)[C@@H]1C (stereo partly drawn) [Compound 7, (E)-3-chloro-6-hydroxy-5-((2E,4E)-5-((1R,2R,6R)-3-hydroxy-1,2,3,6-tetramethylcyclohexyl)-3-methylpenta-2,4-dien-1-yl)-4-methoxy-2-methylbenzaldehyde oxime] | – | 71% | 71% | 6.5 µM | 10 µM | 12.8 µM | 7.2 µM | 6.8 µM | 13.1 µM | – | – | – | – | – | –
3 | CO/N=C/c1c(C)c(Cl)c(OC)c(C/C=C(C)/C=C/[C@@]2(C)[C@H](C)CC/C(=N\OCCN(C)C)[C@@H]2C)c1O [Compound 15, 4-chloro-2-[(2E,4E)-5-[(1R,2R,3E,6R)-3-[[2-(dimethylamino)ethoxy]imino]-1,2,6-trimethylcyclohexyl]-3-methylpenta-2,4-dien-1-yl]-3-methoxy-6-[(1E)-(methoxyimino)methyl]-5-methylphenol] | – | 88% | 79% | 6.7 µM | 7 µM | 1.7 µM | 4.2 µM | 4.8 µM | 4.4 µM | 54 µM (≈ 28.8 µg/mL) | 0.29 µM (≈ 0.155 µg/mL) | – | – | – | –
4 | CO/N=C/c1c(C)c(Cl)c(OC)c(C/C=C(C)/C=C/[C@@]2(C)[C@H](C)CC/C(=N\OCCN3CCN(C)CC3)[C@@H]2C)c1O [Compound 17, 4-chloro-3-methoxy-6-[(1E)-(methoxyimino)methyl]-5-methyl-2-[(2E,4E)-3-methyl-5-[(1R,2R,3E,6R)-1,2,6-trimethyl-3-[[2-(4-methylpiperazin-1-yl)ethoxy]imino]cyclohexyl]penta-2,4-dien-1-yl]phenol] | – | 76% | 55% | 6.8 µM | 5.2 µM | 1.7 µM | 4.1 µM | 5 µM | 4.5 µM | 39 µM (≈ 23 µg/mL) | 0.04 µM (≈ 0.0236 µg/mL) | – | – | – | –
5 | CO/N=C/c1c(C)c(Cl)c(OC)c(C/C=C(C)/C=C/[C@@]2(C)[C@H](C)CC/C(=N\OCC(=O)O)[C@@H]2C)c1O [Compound 19, 2-([[(1E,2R,3R,4R)-3-[(1E,3E)-5-[3-chloro-6-hydroxy-2-methoxy-5-[(1E)-(methoxyimino)methyl]-4-methylphenyl]-3-methylpenta-1,3-dien-1-yl]-2,3,4-trimethylcyclohexylidene]amino]oxy)acetic Acid] | – | 94% | 89% | 22.3 µM | 22.5 µM | 17 µM | 14.6 µM | 47.4 µM | 20.4 µM | 148 µM (≈ 77.1 µg/mL) | 23.7 µM (≈ 12.3 µg/mL) | 30% | 25% | −31% | −68%

Second part, led by results:

Row | melting point | Liver microsome stability remaining % after 60 min incubation with NADPH, human LM [1] | Liver microsome stability remaining % after 60 min incubation with NADPH, mouse LM [2] | IC50 (A549) | IC50 (HT29) | IC50 (BxPC-3) | IC50 (LNCaP) | IC50 (MDA-MB-231) | IC50 (U87-MG) | solubility at 2 h [3, 5] | solubility at 2 h [3, 6] | SMILES | OGTT: blood glucose level after 2 hours of glucose administration, lower than control group [4, 7] | OGTT: glucose AUC lower than control group [4, 7] | decrease of HbA1C level [4, 8] | decrease of blood glucose level [4, 8]
6 | 42 to 43 °C | – | – | – | – | – | – | – | – | – | – | COc1c(Cl)c(C)c(C=O)c(O)c1C/C=C(C)/C=C/[C@@]1(C)[C@H](C)CC[C@](C)(O)[C@@H]1C [Compound 1, 3-chloro-6-hydroxy-5-[(2E,4E)-5-[(1R,2R,3S,6R)-3-hydroxy-1,2,3,6-tetramethylcyclohexyl]-3-methylpenta-2,4-dien-1-yl]-4-methoxy-2-methylbenzaldehyde] | – | – | – | –
7 | – | – | – | 2 µM | 3.6 µM | 2.2 µM | 0.8 µM | 5.3 µM | 3 µM | 18 µM (≈ 8.6 µg/mL) | 0.01 µM (≈ 0.00478 µg/mL) | CC(/C=C/[C@@]1(C)[C@H](C)CCC(NC2CC2)[C@@H]1C)=C\Cc1c(O)c(C=O)c(C)c(Cl)c1OCF (stereo partly drawn) [Compound 13, 3-chloro-5-[(2E,4E)-5-[(1R,2R,6R)-3-(cyclopropylamino)-1,2,6-trimethylcyclohexyl]-3-methylpenta-2,4-dien-1-yl]-4-(fluoromethoxy)-6-hydroxy-2-methylbenzaldehyde] | – | – | – | –
8 | – | – | – | 4.8 µM | 2.7 µM | 2.3 µM | 1.9 µM | 4.1 µM | 2.3 µM | 186 µM (≈ 83.3 µg/mL) | 0.32 µM (≈ 0.143 µg/mL) | CCNC1CC[C@@H](C)[C@](C)(/C=C/C(C)=C/Cc2c(O)c(C=O)c(C)c(Cl)c2OC)[C@H]1C (stereo partly drawn) [Compound 20, 3-chloro-5-[(2E,4E)-5-[(1R,2R,6R)-3-(ethylamino)-1,2,6-trimethylcyclohexyl]-3-methylpenta-2,4-dien-1-yl]-6-hydroxy-4-methoxy-2-methylbenzaldehyde] | – | – | – | –
9 | – | 100% | 80% | 5.3 µM | 5 µM | 1.7 µM | 3.8 µM | 4.3 µM | 3.1 µM | 168 µM (≈ 80.2 µg/mL) | 0.003 µM (≈ 0.00143 µg/mL) | CCNC1CC[C@@H](C)[C@](C)(/C=C/C(C)=C/Cc2c(O)c(/C=N/OC)c(C)c(Cl)c2OC)[C@H]1C (stereo partly drawn) [Compound 21, 4-chloro-2-[(2E,4E)-5-[(1R,2R,6R)-3-(ethylamino)-1,2,6-trimethylcyclohexyl]-3-methylpenta-2,4-dien-1-yl]-3-methoxy-6-[(1E)-(methoxyimino)methyl]-5-methylphenol] | – | – | – | –
10 | – | – | – | 1.9 µM | 3.8 µM | 2.7 µM | 1.1 µM | 6 µM | 3.2 µM | 29 µM (≈ 13.3 µg/mL) | 0.01 µM (≈ 0.0046 µg/mL) | COc1c(Cl)c(C)c(C=O)c(O)c1C/C=C(C)/C=C/[C@@]1(C)[C@H](C)CCC(NC2CC2)[C@@H]1C (stereo partly drawn) [Compound 22, 3-chloro-5-[(2E,4E)-5-[(1R,2R,6R)-3-(cyclopropylamino)-1,2,6-trimethylcyclohexyl]-3-methylpenta-2,4-dien-1-yl]-6-hydroxy-4-methoxy-2-methylbenzaldehyde] | – | – | – | –
